Entries after “also recorded” stand apart in the source; their conditions may differ.
Legend:
HO-1 (rat spleen) = biological target: T1, HO-1 (rat spleen) (Rattus norvegicus, UniProt P06762); assay: HO enzymatic activity, rat spleen microsomal fraction (CO formation from methemalbumin); format: biochemical; details: CO formation from methemalbumin, mean ± SD of replicate experiments, read-out: IC50 HO-1 (rat spleen/μM)
T1 construct: Spleen microsomes were used as a source of HO-1; from tissue; host or cells: spleen microsomal fraction of adult male Sprague-Dawley rats
T1 sequence (P06762 1-289): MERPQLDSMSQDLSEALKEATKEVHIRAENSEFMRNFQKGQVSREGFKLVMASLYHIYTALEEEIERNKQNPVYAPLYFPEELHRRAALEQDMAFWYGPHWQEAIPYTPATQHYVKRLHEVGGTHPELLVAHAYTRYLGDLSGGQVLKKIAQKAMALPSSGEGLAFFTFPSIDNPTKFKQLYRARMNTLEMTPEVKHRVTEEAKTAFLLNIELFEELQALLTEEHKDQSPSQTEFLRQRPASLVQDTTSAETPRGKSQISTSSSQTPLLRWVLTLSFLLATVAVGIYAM

rat C6 glioma cells = assay: Cell proliferation assay ([3H] thymidine incorporation), C6 glioma cells; format: cell-based; details: 6.5 μM, 18 h, hHO-1 transfected rat C6 glioma cells; hydrochloride
Protocol: Rat C6 glioma cells were cultivated in high glucose DMEM supplemented with 10% heat-inactivated fetal bovine serum, […] glutamine, and penicillin-streptomycin (50 U/mL and 50 μg/in L, respectively). […] All cultures were incubated at 37° C. in humidified 95% air-5% CO2.
Cells were seeded in 24-well plates at 1×10^6 cells/mL/well. Upon reaching >90% confluence, cells in each well were transiently transfected with 1.6 μg of plasmid DNA-Lipofectamine 2000 complex using Lipofectamine 2000 method according to manufacturer instructions (Invitrogen). 1.6 μg of plasmid DNA and 4 μL of Lipofectamine 2000 reagent were diluted individually in 100 μL opti-MEM I and incubated for 5 minutes at room temperature with gentle mixing. […]
Cell proliferation was determined by [^3H] thymidine incorporation: Cells were plated in 24-well plates at 10^6 cells/mL/well in complete medium. […] The cells were trypsinized and collected, air-dried on 21 mm glass microfibre filters (Whatman International Ltd., Maidstone, England) and analyzed by scintillation counting in a Wallac-Liquid Scintillator Counter (Perkin Elmer Life Sciences, Boston, Mass., USA). [^3H] thymidine incorporation was expressed as counts per min (cpm) per mL.

[1] = Toxicity / tolerability of QC-56 in SCID mice (pilot study); format: in vivo
Description: IV.I (iii) Bioassay Species and strain: Mouse (Mus musculus); SCID, male Age at dosing initiation: 8 weeks old.
Once tumors became palpable, mice were randomized into experimental groups and the treatment was initiated.

[2] = test system: SKMEL-V human melanoma cells; assay: Human melanoma model SKMEL-V+ in SCID mice (pilot study), tumor growth; format: in vivo, Mouse (Mus musculus); SCID
Description: Human melanoma cells (“SKMEL-V cells”) were derived from SKMEL-24 cells (ATCC) by over expression of mouse VEGF.
Only those cells with >95% viability were used for in-viva studies.
Once tumors reached a size of approximately 0.7 cm^3, they were removed under sterile condition, sliced into small pieces under a stereo-microscope. Each tissue piece was then re-inoculated subcutaneously. Only pieces of approximately the same size and with no signs of necrosis were used.
All data in this study are presented as mean±SE. Statistical analyses were performed by one-way ANOVA followed by Newman-Keuls post-hoc comparisons to assess significant main effects within groups. Statistical significance was set at p<0.05.

[3] = test system: HCT-116 colorectal carcinoma; assay: Colorectal carcinoma model HCT-116 in SCID mice, tumor growth delay; format: in vivo, Mouse (Mus musculus); male SCID; details: dosage of 60 mg/kg
Description: (§1) Control groups received the vehicle alone.

[4] = format: in vivo
Description: as §1

[5] = test system: CD31-positive vessels in SKMEL-V+ tumors; assay: CD31 immunohistochemistry / microvessel density of SKMEL-V+ tumors; format: in vivo, Mouse (Mus musculus), male SCID; details: QC-56 particularly at 60 mg/kg, hydrochloride, 60 mg/kg
Protocol: Cell cultures were maintained in 5% CO2/95% air at 37° C. SKMEL-V (human melanoma cells). SKMEL-V cells were derived from SKMEL-24 cells (ATCC) by overexpression of mouse VEGF. […] Tumors were either snap frozen in liquid nitrogen or fixed in 10% buffered formalin and embedded in paraffin. […] BD PharMingen, San Diego, Calif.). […] Sections were rehydrated in PBS and then blocked with 5% normal goat serum for 1 h. The sections were then incubated overnight at 4° C. with CD31 antibody diluted 1:25 in 3% BSA-PBS. […] Paraffin-embedded material was used for Harris' hematoxylin. Microvessel density was quantified using a method described by Weidner et al ([…], and Folkman […]. Med, 1991; 324:1-8). Briefly, randomly vascularized areas were selected (hot spots) under 40× field and 100× fields. Then a 400× field was used to count microvessels in each of these areas. Single endothelial cells or clusters of endothelial cells with or without lumen were considered to be individual vessels. […] All slides were examined blindly with no prior knowledge of the treatment status.

Structure (SMILES)	IC50 (HO-1 (rat spleen))	3H-thymidine incorporation, hHO-1 transfected cells (rat C6 glioma cells)	tolerability after multiple administrations ([1]; 50 mg/kg)	tolerability at repeated doses ([1]; 30 and 60 mg/kg, intraperitoneal, hydrochloride)	toxic single dose ([1]; intraperitoneally, single dose)	tumor volume compared with vehicle alone ([2]; 30 mg/kg (P<0.03))	tumor volume compared with vehicle alone ([2]; 60 mg/kg (P<0.02))	mortality [3]	toxicity in the combination study ([4]; QC-56 60 mg/kg ip, 4 cycles, chemotherapy drugs ip)	tolerability at multiple doses up to 100 mg/kg ([4]; multiple doses up to 100 mg/kg, intraperitoneal and intravenous routes, hydrochloride)	vessel count / tumor vascularization (CD31) [5]
Cl.FC[C@@H]1CO[C@@](CCc2ccc(Cl)cc2)(Cn2ccnc2)O1 [QC-47, (2R,4S)-1-{2-[2-(4-Chlorophenyl)ethyl]-4-fluoromethyl-[1,3]dioxolan-2-ylmethyl}-1H-imidazole hydrochloride]	6 ± 3 µM	–	–	–	–	–	–	–	–	–	–
Brc1ccc(CCC2(Cn3ccnc3)OCCO2)cc1.Cl [QC-56, 1-((2-(2-(4-Bromophenyl)ethyl)-1,3-dioxolan-2-yl)methyl)-1H-imidazole hydrochloride]	–	significantly attenuated the effects of hHO-1 transfection on ^3H-thymidine incorporation; also recorded: this rate of proliferation was attenuated	well tolerated	well tolerated at repeated doses of 30 and 60 mg/kg with minor changes in body weights with no apparent toxicity; also recorded: well tolerated	≥ 100 mg/kg	statistically significantly smaller	statistically significantly smaller	not	No apparent toxicity	well tolerated with no apparent signs of toxicity; also recorded: well tolerated	significant decrease in the size and number of blood vessels

Reference: patent US20120020915A1, “Compounds and Methods for Treating Cancer and Diseases of the Central Nervous System” (QUEENS UNIVERSITY AT KINGSTON, priority 2007, published 2012)
